The results in this text go back to PubChem BioAssay (NCI).

Assay in all cases: NCI anticancer screen, dose series, 48 h
Assay [1] has as its system HL-60(TB) leukemia.
Assay [2] relates to OVCAR-8 ovarian.
In assay [3] the test system is SF-539 CNS.
Assay [4] has as its system U251 CNS.
In assay [5] the test system is SNB-75 CNS.
In assay [6] the test system is DU-145 prostate.
Assay [7] has as its system HT29 colon.
Assay [8] relates to NCI-H226 lung.
The test system of assay [9] is NCI-H23 lung.
Assay [10] concerns K-562 leukemia.

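Assay format: 96-well plates, 48-hour exposure. Abbreviation: GI50, concentration required for 50% inhibition of growth. The concentration for full growth arrest is given as TGI.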

On to `CCOC(=O)c1cnc(SCc2ccc(Cl)c(Cl)c2)nc1N1CC1`, for which the GI50 in assay [1] was 1.72 µM; in [2], 3.6 µM; in assay [3], 3.3 µM; in assay [4], 3.71 µM; in [5], 2.05 µM; in assay [6], 2.98 µM. The GI50 in [7] is 2.7 µM; in assay [8], 5.01 µM; in [9], 3.62 µM; in assay [10] it was 1.15 µM. In addition, the TGI came to 9.13 µM in assay [1]; 30.2 µM in [2]; 12.3 µM in assay [3]; 18.2 µM in assay [4]; 6.09 µM in [5]; 9.73 µM in assay [6]. For the same molecule, the TGI in assay [7] came out at 12.2 µM; in assay [8], 18.9 µM; in assay [9], 14.5 µM; in assay [10], 14.8 µM.

`O=[N+]([O-])c1ccc(N/N=C\c2cc(Cl)ccc2O)nc1`: the GI50 in assay [1] was 0.65 µM; in [2], 0.97 µM; in assay [3] it was 3.02 µM; in [4] it was 0.51 µM; in assay [5], 1.55 µM; in assay [6] it was 1.22 µM. Further, the GI50 was 4.9 µM in assay [7], 20.9 µM in assay [8], 0.541 µM in assay [9] and 2.09 µM in assay [10]. The TGI was 8.02 µM in [1]; 14.1 µM in [2]; above 100 µM in assay [3]; 12.1 µM in [4]; 21.3 µM in [5]; 13.1 µM in assay [6]. Besides, the TGI is above 100 µM in assay [7], above 100 µM in [8], 9 µM in assay [9] and above 100 µM in assay [10].

Consider `COC(=O)[C@]12CC[C@@H](C)[C@H](C)[C@@H]1C1=CC[C@@H]3[C@@]4(C)CC(=O)[C@H](O)[C@@]5(C)COC(=C45)C[C@@]3(C)[C@]1(C)CC2`, for which the GI50 is 19.5 µM in [1]; 19.6 µM in assay [2]; 18.8 µM in assay [3]; 17.9 µM in assay [4]; 16 µM in assay [5]; 18.7 µM in assay [6]. Besides, the GI50 is 19.2 µM in assay [7], 17.7 µM in assay [8], 17.5 µM in assay [9] and 20.5 µM in assay [10]. In addition, the TGI turned out to be 40.9 µM in assay [1]; 39.2 µM in assay [2]; 37.2 µM in [3]; 31.9 µM in assay [4]; 33 µM in assay [5]; 35.1 µM in assay [6]. Further, the TGI is 34.7 µM in [7], 38.7 µM in assay [8], 35.7 µM in [9] and 41.8 µM in assay [10].

As for `Nc1ccn(C=C=CCO)c(=O)n1`, the TGI is 435 µM in [1]; above 1000 µM in [2]; above 1000 µM in [3]; above 1000 µM in [4]; above 1000 µM in assay [5]; above 1000 µM in [6]. Also, the TGI in [7], in assay [8], in assay [9] and in [10] was above 1000 µM each time. The GI50 in [3], in assay [4], in assay [5], in [6], in assay [7] and in assay [8] was above 1000 µM throughout. In addition, the GI50 in assay [9] and in assay [10] was above 1000 µM each time.

For `O=C(c1cccs1)c1c(C(F)(F)F)n([O-])c2ccc(C(F)(F)F)cc2[n+]1=O`, the GI50 in assay [1] was 0.145 µM; in assay [2] it was 0.116 µM; in [3], 0.183 µM; in assay [4], 0.179 µM; in assay [5], 0.502 µM; in assay [6], 0.234 µM. The GI50 in [7] was 0.19 µM; in assay [8] it was 0.524 µM; in [9], 0.353 µM; in assay [10] it was 0.251 µM. Besides, the TGI in assay [1] was determined as 0.526 µM; in [2] it was 0.479 µM; in assay [3] it was 0.36 µM; in assay [4] it was 0.322 µM; in assay [5], 1.21 µM; in assay [6], 0.576 µM. Moreover, the TGI came out at 0.364 µM in assay [7], 1.42 µM in assay [8], 1 µM in assay [9] and 1.21 µM in assay [10].

On to `Cn1cc(-c2ccc(=O)n(Cc3cccc(-c4ncc(OCCN5CCOCC5)cn4)c3)n2)cn1`, for which the GI50 in assay [1] is 74.1 µM; in assay [2] it was 36.5 µM; in [3] it was above 100 µM; in assay [4] it was 92.1 µM; in [5], above 42.5 µM; in assay [6] it was above 100 µM. Moreover, the GI50 in assay [7] was above 100 µM; in [8] it was 23.5 µM; in assay [9] it was 32.9 µM; in assay [10], 99.3 µM. Besides, the TGI in assay [1], in assay [2], in assay [3], in assay [4], in assay [5] and in assay [6] was above 100 µM each time. For the same molecule, the TGI in assay [7], in assay [8], in [9] and in assay [10] was above 100 µM each time.

For the molecule `CCCCCCCCCCCCCCCCCCNC(=O)[C@H]1CSC(c2ccc(OC)c(F)c2)N1` (stereo not given in full), the GI50 in assay [1] was 1.96 µM; in [2], 2.56 µM; in [3] it was 4.67 µM; in assay [4] it was 4.48 µM; in assay [5], 3.1 µM; in assay [6], 24.2 µM. In addition, the GI50 was 5.05 µM in assay [7], 2.28 µM in assay [8], 7.22 µM in [9] and 2 µM in [10]. The TGI in assay [1] is 4.65 µM; in assay [2], 11.4 µM; in [3] it was above 37.6 µM; in [4], 22.9 µM; in [5], 14.1 µM; in assay [6], above 54.6 µM. Also, the TGI was above 41.4 µM in assay [7], 6.86 µM in assay [8], 27 µM in [9] and 11.2 µM in [10].

Regarding `COc1ccccc1C(=O)/C=C/c1cc2cccc(OC)c2[nH]c1=O`, the GI50 in assay [1] was 0.0144 µM; in [2], 0.0392 µM; in assay [3], 0.0211 µM; in [4] it was 0.0319 µM; in assay [5], 0.0191 µM; in [6], 0.0331 µM. Besides, the GI50 was below 0.0131 µM in [7], 0.0716 µM in [8], 0.125 µM in assay [9] and below 0.0125 µM in [10]. In addition, the TGI in assay [1] amounted to 0.0583 µM; in assay [2], 15 µM; in [3], 0.0848 µM; in [4], 1.5 µM; in [5], 3.6 µM; in assay [6], 0.714 µM. Moreover, the TGI in assay [7] is 4.02 µM; in [8], 3.47 µM; in assay [9], 2.04 µM; in assay [10], above 89.1 µM.

Turning to `O=C1c2ccccc2-c2c1c1ccccc1c(=O)n2CCO`, the TGI in assay [1] was 7.29 µM; in [2], above 100 µM; in assay [3], above 94.1 µM; in [4], above 100 µM; in assay [5], above 81 µM; in assay [6], above 100 µM. Moreover, the TGI was above 100 µM in [7], above 38.1 µM in assay [8], above 61.9 µM in assay [9] and above 100 µM in assay [10].

As to `Cc1ccc(S(=O)(=O)N/N=C/C(Br)=C(/Br)C(=O)O)cc1`, the TGI in assay [1] was determined as 5.12 µM; in assay [2] it was 9.93 µM; in assay [3], 14.5 µM; in [4], 18.8 µM; in assay [5] it was 41 µM; in [6] it was 26.9 µM. Besides, the TGI is 26.8 µM in assay [7], 27.9 µM in [8] and 15.2 µM in [9].

Consider `CC1(C)N=C(N)N=C(N)N1c1cccc(/C=C/C=C/c2cccc([N+](=O)[O-])c2)c1`, for which the GI50 in [1] was 2.55 µM; in [2], 13.8 µM; in [3], 4.43 µM; in assay [4], 0.801 µM; in assay [5] it was 6.88 µM; in [6], 7.5 µM. Further, the GI50 in assay [7] is 1.59 µM; in assay [8] it was 10.9 µM; in assay [10] it was 3.29 µM. Moreover, the TGI in assay [1] is 13 µM; in [2] it was 30 µM; in assay [3] it was 17.6 µM; in assay [4] it was 13.6 µM; in [5], 21.5 µM; in [6], 20.2 µM. The TGI turned out to be 14.7 µM in assay [7], 34.1 µM in assay [8] and 19.6 µM in [10].

For the molecule `O=S(=O)(c1ccc(NC(=S)N/N=C/c2ccccc2O)cc1)N1CCCCC1`, the GI50 in [1] was 0.351 µM. The TGI in assay [1] was 7.12 µM; in assay [2], 14.9 µM; in assay [3] it was above 40.9 µM; in assay [4], 16.8 µM; in assay [5] it was above 65.2 µM; in assay [6], above 47.4 µM. For the same molecule, the TGI in assay [7] was above 68.8 µM; in assay [8] it was 0.803 µM; in [9], 6.94 µM.
